In series [1] the test system is male B6C3F1 mice. The following applies: 32 ppm FFA in the air (equivalent to 60 mg FFA/kg bw/day), ref National Toxicology Program [1999]; cited from earlier work.
Series [2] has as its system S. typhimurium TA100 strains expressing different SULT forms. Conditions: ref Glatt et al. [2012]; cited from earlier work.
Details of series [3]: method as in Monien et al. [2009]. The following applies: 100 mg HMF/kg body weight administered to mice; ref Monien et al. [2009]; cited from earlier work.
For series [4], the system named is female B6C3F1 mice. Nature of the series: Two-year bioassay of HMF, oral administration. It is filed as in vivo. The following applies: 70 kg human body weight, uptake 4–30 mg per person.
In series [5] the test system is mSult2a3. Description: HMF sulfoconjugation assay. The series is classed as biochemical, mouse. As for the experimental part: (§1) Cytosolic fractions containing individual SULT forms were prepared from transgenic S. typhimurium TA1538. Table S1 in the Supplementary Material provides a summary of the thirty SULTs used in the current study together with references describing the cloning of the respective S. typhimurium TA1538 strains. The expressed SULT forms are denoted with the prefixes h, m and r for human, mouse and rat enzymes, respectively. Bacteria were grown in Luria Broth medium containing ampicillin (100 µg/ml) by stirring for 8 h at 200 revolutions/min at 37 °C. The bacterial suspensions were centrifuged at 5,000 g for 10 min. The sediments were washed twice with 25 ml of 10 mM potassium phosphate buffer (pH 7.4)/50 mM potassium chloride (KCP buffer) and centrifuged again. The pellets were taken up in 800 µl KCP buffer and sonicated thrice for 15 s with 30 s pauses in between. The soluble fraction was attained by centrifuging for 1 h at 100,000 g. The supernatants (in the following termed cytosolic preparations) were frozen at −80 °C. The protein concentrations were determined according to a bicinchoninic acid (BCA) assay protocol. The SULT concentrations in the cytosolic preparations were estimated after electrophoretic separation and immunodetection using inclusion bodies of different SULT forms as standards (Teubner et al. [2007]). The preparation of SULT inclusion bodies and the immunodetection of SULTs is described in the Supplementary Material, which also contains a representative immunoblot of different amounts of rSult1a1standard and a cytosolic preparation of S. typhimurium expressing rSult1a1 (Fig. S1).
(§2) The reactions were conducted in mixtures of 100 µl containing 25–200 µg protein, 50 mM potassium phosphate buffer (pH 7.4), 5 mM MgCl2, 50 µM PAPS and different concentrations of HMF at 37 °C. Preliminary experiments ensured that measurements were recorded under ‘linear’ conditions, i.e., doubling of protein concentration or incubation time was doubling the amount of sulfate ester formed. The reactions were stopped after 30 min by adding 300 µl ice-cold 2-propanol, mixed and centrifuged at 15,000 g for 10 min.
(§3) SMF concentrations of the clear supernatants were analyzed by UPLC-MS/MS. The protocol was adapted from the quantification of SMF in plasma samples of HMF-treated mice (Monien et al. [2009]). In short, the supernatants were analyzed using a UPLC system (Waters) connected to a Quattro Premier XE tandem quadrupole mass spectrometer (Waters) using the negative electrospray ionization mode. Samples of 4 µl were injected into a HSS T3 column (1.8 µm, 2.1 × 100 mm; Waters) and eluted with an isocratic flow of 0.35 ml/min 10 mM ammonium acetate/methanol (95:5). The fragmentation reactions of SMF yielding two principal ions, the sulfate ion radical (m/z = 204.9 → 96.0) and the protonated sulfonate ion (m/z = 204.9 → 81.0) were monitored. The tune parameters were as follows: temperature of the electrospray source 120 °C; desolvation temperature 475 °C; desolvation gas nitrogen (800 l/h); cone gas nitrogen (100 l/h); collision gas argon (indicated cell pressure ~5 × 10^−3 mbar). For the fragmentation of SMF, collision energies were 20 and 23 eV for the transitions m/z = 204.9 → 81.0 and m/z = 204.9 → 96.0, respectively. The dwell time was set to 100 ms, and capillary voltage was set to 0.35 kV. The cone and RF1 lens voltages were 32 and 0.2 V, respectively. SMF was quantified using an external calibration line that was linear in the concentration range of 1.0 nM (4 fmol/injection) to 2,500 (10 pmol/injection) SMF (r ^2 ≥ 0.99). Data acquisition and handling were performed with MassLynx 4.1 software (Waters). The limit of detection (LOD) for this technique of 2.5 nM SMF has been reported (Monien et al. [2009]). In the current study, this corresponds to 10 fmol SMF per injection or a reaction rate of 0.5 pmol SMF/mg/min.

In series [6] the test system is mSult5a1. Description: HMF sulfoconjugation assay. It is filed as biochemical, mouse. As for the experimental part:
as §1, §2, §3

Series [7] concerns female B6C3F1 mice. The arrangement: method as in National Toxicology Program [2008]. Conditions: oral 188 mg HMF/kg for 104 weeks, ref National Toxicology Program [2008]; cited from earlier work.
In series [8] the target is T1, rSult2a1 (Rattus norvegicus, UniProt P15709).
T1 construct: made in house; host or cells: Salmonella typhimurium TA1538 (cytosolic fraction, enzyme not purified)
T1 sequence (P15709 1-284): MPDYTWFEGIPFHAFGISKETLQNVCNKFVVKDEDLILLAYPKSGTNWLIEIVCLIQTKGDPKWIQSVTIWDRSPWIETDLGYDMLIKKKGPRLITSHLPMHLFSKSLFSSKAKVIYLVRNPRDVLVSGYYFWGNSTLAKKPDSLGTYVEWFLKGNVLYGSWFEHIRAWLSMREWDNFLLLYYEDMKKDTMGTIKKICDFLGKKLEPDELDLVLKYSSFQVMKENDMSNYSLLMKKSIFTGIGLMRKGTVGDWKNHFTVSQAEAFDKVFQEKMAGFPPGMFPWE
Nature of the series: HMF sulfoconjugation assay. It is filed as biochemical. As for the experimental part:
as §1, §2, §3

Series [9] concerns the target T2, hSULT1C1 (Homo sapiens, UniProt O00338).
T2 construct: made in house; host or cells: Salmonella typhimurium TA1538 (cytosolic fraction, not purified)
Description: HMF sulfoconjugation assay. It is filed as biochemical. As for the experimental part: as §1, §2, §3

T2 sequence (O00338 whole entry): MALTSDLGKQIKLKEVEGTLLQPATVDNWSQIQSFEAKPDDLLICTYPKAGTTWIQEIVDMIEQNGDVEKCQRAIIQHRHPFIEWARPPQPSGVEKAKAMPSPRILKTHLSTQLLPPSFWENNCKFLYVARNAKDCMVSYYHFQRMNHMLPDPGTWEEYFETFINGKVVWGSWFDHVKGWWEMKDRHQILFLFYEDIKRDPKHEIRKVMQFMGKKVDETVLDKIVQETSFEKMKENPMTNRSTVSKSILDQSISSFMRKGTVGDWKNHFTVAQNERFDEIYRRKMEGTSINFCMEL

On to `OCc1ccco1` [FFA, furfuryl alcohol], for which the carcinogenic effect result in series [1] is “induced renal tubule neoplasms”. The “mutagenicity in SULT-expressing strains” value in series [2] is “highest mutagenicity of FFA was observed in bacteria expressing hSULT1A1, 1C2 and mSult1a1”.

Consider `O=Cc1ccc(CO)o1` [HMF, 5-Hydroxymethylfurfural], for which the “fraction of dose converted to SMF” value in series [3] is recorded as 500 ppm. In addition, the “margin between carcinogenic dose (188 mg/kg) and human HMF uptake” value in series [4] is listed as 440- to 3,300 fold. In addition, the Rate of sulfoconjugation in [5] (0.1 mM HMF), in [5] (1 mM HMF), in series [5] (10 mM HMF), in series [5] (100 mM HMF), in series [6] (0.1 mM HMF) and in series [6] (1 mM HMF) was below 0.5 pmol/mg/min each time. The Rate of sulfoconjugation in series [6] (10 mM HMF) was below 0.5 pmol/mg/min; in series [6] (100 mM HMF), below 0.5 pmol/mg/min; in series [8] (0.1 mM HMF), below 0.5 pmol/mg/min; in series [8] (1 mM HMF), 1.8 ± 0.1 pmol/mg/min; in series [8] (10 mM HMF), 17.2 ± 0.6 pmol/mg/min; in [8] (100 mM HMF), 58.9 ± 4.6 pmol/mg/min. Also, the Rate of sulfoconjugation in series [9] (0.1 mM HMF) is reported as below 0.5 pmol/mg/min; in series [9] (1 mM HMF) it was below 0.5 pmol/mg/min; in [9] (10 mM HMF), 4.7 ± 0.3 pmol/mg/min; in series [9] (100 mM HMF) it was 11.0 ± 1.4 pmol/mg/min. For the same compound, the carcinogenic effect entry in series [7] is “increased incidences of hepatocellular adenomas”. Besides, the “mutagenicity in SULT-expressing strains” value in [2] is “small, were detectable in those strains that expressed hSULT1A1, 1A3 and 1C2 as well as mSult1a1 and 1d1”.

The values above are taken from paper PMC4710668, “Bioactivation of food genotoxicants 5-hydroxymethylfurfural and furfuryl alcohol by sulfotransferases from human, mouse and rat: a comparative study” (Archives of Toxicology, 2014).
